Measurements published in patent US10231907B2, “Compositions for improving the health and appearance of skin” (Algenist Holdings, Inc., priority 2006, dated 2019).

Assays:
Fibroblasts = assay: Procollagen synthesis (type I C-peptide ELISA) in fibroblast culture; type: cell-based, human; conditions: 4 mM, 48 hours, mean ± SD
Description: A fibroblast cell culture model was used to assess the ability of the polysaccharide from Porphyridium to exert an effect on procollagen synthesis. Fibroblasts are the main source of the extracelluar matrix peptides, including the structural protein collagen. Procollagen is a large peptide synthesized by fibroblasts in the dermal layer of the skin and is the precursor for collagen. As the peptide is processed to form a mature collagen protein, the propeptide portion is cleaved off (type I C-peptide). Both the mature collagen protein and the type I C-peptide fragment are then released into the extracellular environment. As collagen is synthesized the type I C-peptide fragment accumulates into the tissue culture medium. Since there is a 1:1 stoichiometric ratio between the two parts of the procollagen peptide, assaying for type I C-peptide reflects the amount of collagen synthesized. […]
A series of type I C-peptide standards was prepared ranging from 0 ng/ml to 640 ng/ml. […] After the incubation 100 μl of stop solution (1 N sulfuric acid) was added to each well and the plate was read using a microplate reader at 450 nm.
To quantify the amount of procollagen present, a standard curve was generated using known concentrations of procollagen. […] Absorbance values for the test and positive control samples was used to determine the amount of procollagen present. […]

[1] = test system: Porphyridium sp. and Porphyridium cruentum; assay: Antibiotic sensitivity on agar plates; type: cell-based; conditions: 14 days
Method: Approximately […] cells (300 ul of 1.5×10^5 cells per ml) of Porphyridium sp. and Porphyridium cruentum cultures in liquid ATCC 1495 ASW media were plated onto ATCC 1495 ASW agar plates (1.5% agar). The plates contained varying amounts of zeocin, sulfometuron, hygromycin and spectinomycin. The plates were put under constant artificial fluorescent light of approximately 480 lux. After 14 days, plates were checked for growth.

[2] = test system: MatTek EpiDerm® skin model (normal human-derived epidermal keratinocytes); assay: TT dimer-UV exposure assay in MatTek EpiDerm skin model; type: cell-based; conditions: 1 mM, UVB 300 mJ/cm^2, mean ± SD
Method: TT dimer-UV exposure assay: The testing system used for this assay was the MatTek EpiDerm®, a skin model that consists of normal human-derived epidermal keratinocytes cultured to form a multilayered, highly differentiated model of the human epidermis. For this study, the tissues were treated topically overnight with either test materials, 1 mM Trolox (positive control), or left untreated (negative control). On the following day, the tissues were exposed to UVB (300 mJ/cm^2). Following the exposures the DNA was extracted from the EpiDerm tissues and assayed for thymine dimer content. Samples of the DNA were immobilized on a solid membrane support and incubated with an antibody that recognizes thymidine dimers in double stranded DNA. The primary antibody was detected using a secondary antibody conjugated to an alkaline phosphatase enzyme followed by the addition of a substrate that the alkaline phosphatase enzyme uses to generate a chemiluminescent signal. The light generated by this reaction was captured using film with the intensity of the light signal being proportional to the amount of the thymine dimers present in the sample. Test material BM was Porphyridium sp. biomass that had been homogenized with a Microfluidizer® twice and then lyophilized. […] Extracted DNA was quantified via a fluorometric assay. […]

hyaluronidase = assay: Anti-hyaluronidase assay (bHA-coated 96-well plate); type: biochemical; conditions: 0.1%
Method: Biotinylated hyaluronic acid (bHA) was covalently attached to the wells of a 96-well plate. Samples containing hyaluronidase and various test materials were then added to the wells. The hyaluronidase degrades the bound hyaluronic acid, resulting in a decrease in the amount of biotin covalently linked to the well plate. At the end of the incubation period the reaction was stopped and the well plate was washed to remove the hyaluronidase. The remaining bHA was detected using an avidin bound peroxidase enzyme. When an appropriate substrate is added, the peroxidase enzyme generated a color signal in proportion to the amount of bHA. The color signal was measured spectrophotometrically, and was inversely proportional to the amount of hyaluronidase activity in the sample. […] Also see Frost, G. I., Stern, R. A Microtiter-Based Assay for Hyaluronidase Activity Not Requiring Specialized Reagents. Analytical Biochemistry 251, 263-269: 1997. […]
During the 30 minute incubation, an avidin/biotin-peroxidase complex was prepared in 10.5 ml of PBS containing 0.1% Tween 20 using an ABC kit. […] The plate was incubated in the dark for 10-20 minutes and then read at 460 nm using a plate reader. The substrate solution was also added to three wells that were not treated with test materials or the avidin/biotin-peroxidase solution and were used as a blank for the absorbance measurements. […]

Q: How did the “Type I C-Peptide” value (Fibroblasts) turn out when `CCCC(=O)[O-].[Na+]` [Na Butyrate, sodium butyrate] was run?
A: 1425 ± 81 ng/mL

Q: With `CN[C@@H]1[C@H](O)[C@H](NC)[C@H]2O[C@@]3(O)C(=O)C[C@@H](C)O[C@H]3O[C@@H]2[C@H]1O` [Specinomycin] as the molecule, how does the Growth ([1]; 100.0 ug/ml) read?
A: + + + +

Q: And the Growth ([1]; 250.0 ug/ml)?
A: + + + +

Q: What about the Growth ([1]; 750.0 ug/ml) of the same molecule?
A: + + + +

Q: For `Cc1c(C)c2c(c(C)c1O)CCC(C)(C(=O)O)O2` (stereo not drawn) [Trolox], which “Optical Density (thymidine dimer)” value [2] is on record?
A: 107 ± 1 optical density units

Q: How did the “Percent Inhibition” value (hyaluronidase) turn out when heparin was run?
A: 74%
